Source: patent US7094796B2, “Coupling product between tryptamine and an alpha-amino acid, process for its preparation as well as its application in the neurocosmetic field” (Exsymol S.A.M., priority 2002, dated 2006)

Assays:
PC 12 cells [1] = test: Test 1: cytoprotecting effect on PC 12 cells submitted to a cytotoxic UV-B stress (LDH activity in culture medium); type: cell-based, murine; conditions: UV-B 285 nm, 500 mJ/cm^2, average of six measures
Description: (§1) The cell model chosen by the applicant in all its in vitro experimentations was a pheochromocytomal cell line with murine origin, called “PC 12” and commonly accepted for neurobiological and neurochemical studies on nervous cells (Greene L. A. and al., Proc. Natl. Acad. Sci. USA (1976), vol.73, pp.2424–2428), in particular on peripheral neurones which innervate skin (Keilbaugh S. A., Biochem. Pharm. (1997), vol.53, pp.1485–1492).
(§2) The PC 12 line was used after differentiation according to a method described in the literature (Greene L. A. et al. in Culturing Nerve Cells (1991), MIT Press, Cambridge, Mass., pp.207–225).
Test 1: cytoprotecting effect of the alpha-L-glutamyltryptamine, L-methionyltryptamine and L-tryptophantryptamine on PC 12 cells submitted to a UV-B stress. Comparison with a reference antioxidant. A cytotoxic UV-B stress is applied on the nervous cell model (285 nm±5; 500 mJ/cm^2), in the absence then in the presence of active ingredient, successively the alpha-L-glutamyltryptamine (Glu-Tryp), L-methionyltryptamine (Met-Tryp) and L-tryptophantryptamine (Trp-Tryp).
The cell death is then evaluated by the measure of lactico-dehydrogenase activity (LDH) in the culture medium. This activity is proportional to the cell lysis which follows the cell death.
The results are expressed in % of protection and are given by the ratio of LDH activity according to the following equation: […]
The results are compared to the ones obtained with a reference antioxidant which is vitamin E (vit.E).
Validity of the test is checked by the measure of LDH activity in the culture medium of non stressed cells (negative check). Values listed in the tables hereafter are average values obtained from six measures.

PC 12 cells [2] = test: Test 2: slowdown of the neurodegeneration process of PC 12 submitted to a deprivation of serum (LDH release); type: cell-based, murine; conditions: serum deprivation of nine days, average of six measures
Description: as §1, §2
Test 2: anti-aging effect of the alpha-L-glutamyltryptamine, L-methionyltryptamine and L-tryptophantryptamine with the slowdown of the neurodegeneration process of PC 12 submitted to a deprivation of serum.
A deprivation of serum is applied to PC 12 cells in order to imitate the aging effects. The neurodegeneration process is followed, in the absence then in the presence of active ingredient, successively the alpha-L-glutamyltryptamine (Glu-Tryp), L-methionyltryptamine (Met-Tryp) and L-tryptophantryptamine (Trp-Tryp), by a kinetic measure of the release in the culture medium of lactico-dehydrogenase enzyme (LDH).
The results are expressed in relative survival rate given by the LDH activity ratio according to the following equation: […]
The values listed in the tables hereafter are average values obtained from six measures after a serum deprivation of nine days.

PC 12 cells [3] = test: Test 3: anti-inflammatory effect on PC 12 cells submitted to a UV-B pro-inflammatory stress (IL-6 production); type: cell-based, murine; conditions: UV-B 285 nm, 150 mJ/cm^2, non treated irradiated control 400, non irradiated control 0
Description: as §1, §2
Test 3: anti-inflammatory effect of the alpha-L-glutamyltryptamine, L-methionyltryptamine and L-tryptophantryptamine on PC 12 cells submitted to a pro-inflammatory stress. Comparison with two controls (PC 12): the first one is non stressed, the second one is stressed but non treated
A UV-B pro-inflammatory stress is applied on PC 12 cells (285 nm±5; 150 mJ/cm^2), in the absence then in the presence of active ingredient, successively the alpha-L-glutamyltryptamine (Glu-Tryp), L-methionyltryptamine (Met-Tryp) and L-tryptophantryptamine (Trp-Tryp).
The neurogenic inflammatory response is evaluated by the measure of the rate of pro-inflammatory interleukine-6 (IL-6) which are produced by the PC 12 cells.

[4] = test system: immune monocyte cells, the THP-1 line; test: Test 4: stimulation of the neuro immuno-cutaneous system (IL-1β produced by THP-1 monocytes given supernatants of treated PC 12 cells); type: cell-based; conditions: supernatant added to THP-1, non treated supernatant control 40
Procedure: Test 4: stimulation of the neuro immuno-cutaneous system with the alpha-L-glutamyltryptamine, L-methionyltryptamine or L-tryptophantryptamine.
PC 12 cells are differentiated according to a special protocol to avoid artefacts. After a brief deprivation of growth and differentiation factors, PC 12 are incubated in different concentrations of pseudodipeptides, successively the alpha-L-glutamyltryptamine (Glu-Tryp), L-methionyltryptamine (Met-Tryp) and L-tryptophantryptamine (Trp-Tryp).
After a five days-incubation, the cellular supernatants containing neuromediators and miscellaneous secretions are sampled then introduced in the culture of immune monocyte cells, the THP-1 line.
The effect on the neuro immuno-cutaneous system is observed by measuring the rate of IL-1β interleukines produced by the monocyte cells in response to the addition of supernatants coming from the culture of PC 12 cells.
The results are compared to two controls: the first one with immune cells without supernatant, the second one containing immune cells with supernatant but non treated.

[5] = 0.05 mM on PC 12, five days-incubation
[6] = 0.1 mM on PC 12, five days-incubation

Compound	% of protection (PC 12 cells [1]; 2 mM) [%]	% of protection (PC 12 cells [1]; 0.05 mM) [%]	% of protection (PC 12 cells [1]; 0.1 mM) [%]	% of protection (PC 12 cells [1]; 0.45 mM) [%]	% of protection (PC 12 cells [1]; 0.85 mM) [%]	% of protection (PC 12 cells [1]; 1.80 mM) [%]	improvement of the survival time (%) (PC 12 cells [2]; 0.1 mM)	improvement of the survival time (%) (PC 12 cells [2]; 0.45 mM)	improvement of the survival time (%) (PC 12 cells [2]; 0.85 mM)	produced IL-6 rate (PC 12 cells [3]; 0.1 mM) [pg/mL]	produced IL-6 rate (PC 12 cells [3]; 0.45 mM) [pg/mL]	produced IL-6 rate (PC 12 cells [3]; 0.85 mM) [pg/mL]	produced IL-1β rate [4, 5] [pg/mL]	produced IL-1β rate [4, 6] [pg/mL]	produced IL-1β rate ([4]; 0.45 mM on PC 12, five days-incubation) [pg/mL]	% of protection (PC 12 cells [1]; 0.48 mM) [%]	% of protection (PC 12 cells [1]; 1.91 mM) [%]	improvement of the survival time (%) (PC 12 cells [2]; 0.48 mM)	produced IL-6 rate (PC 12 cells [3]; 0.48 mM) [pg/mL]	produced IL-1β rate ([4]; 0.48 mM on PC 12, five days-incubation) [pg/mL]
vitamin E [Vit. E, reference compound]	34																			
N[C@@H](Cc1c[nH]c2ccccc12)C(=O)NCCc1c[nH]c2ccccc12 [Trp-Tryp, L-tryptophantryptamine]		22	35	45	58	66	+17%	+20%	+30%	305	210	100	44	60	92					
CSCC[C@H](N)C(=O)NCCc1c[nH]c2ccccc12 [Met-Tryp, L-methionyltryptamine]		20	32		53		+12%		+28%	290		85	42	55		42	65	+15%	210	85
